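Growth conditions: 96-well plates. Treatment: test compound, 48 hours, 5 concentrations. Analysis: linear interpolation between bracketing concentrations; unreached endpoints set to highest concentration. Here, GI50 denotes the concentration required for 50% inhibition of growth.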 Calls of active or inactive are those of the source. No stated cut-off is given here; in the data, active = GI50 up to about 1.1 µM and inactive = higher.
What was measured:
Experiment in all cases: NCI-60 cell line screen, 48 h
[1] = system: OVCAR-5
[2] = system: COLO 205
[3] = system: 786-0
[4] = system: SW-620
[5] = system: RXF 393
[6] = system: SK-MEL-28
[7] = system: OVCAR-4
[8] = system: TK-10
[9] = system: UACC-257
[10] = system: A549
[11] = system: OVCAR-3
[12] = system: HT-29
[13] = system: KM12
[14] = system: HOP-62
[15] = system: MOLT-4
[16] = system: NCI-H226
[17] = system: HL-60
[18] = system: M14
[19] = system: NCI-H522

Measured: GI50

C=C(C)CC(C(=O)O)c1ccc(C)cc1 (stereo not drawn)
inactive: [1] > 100 µM | [2] > 100 µM | [3] > 100 µM | [4] > 100 µM | [5] > 100 µM | [6] > 100 µM | [7] > 100 µM | [8] > 100 µM | [9] > 100 µM | [10] > 100 µM | [11] > 100 µM | [12] > 100 µM | [13] > 100 µM | [14] > 100 µM

NC(=O)/N=C1\NC(Cc2ccccc2)C(=O)N1Cc1ccccc1 (stereo not drawn)
inactive: [1] > 100 µM | [2] > 100 µM | [3] > 100 µM | [4] > 100 µM | [15] > 100 µM | [16] > 100 µM | [5] > 100 µM | [6] > 100 µM | [7] > 100 µM | [17] > 100 µM | [8] > 100 µM | [9] > 100 µM | [10] > 100 µM | [18] > 100 µM | [11] > 100 µM | [12] > 100 µM | [13] > 100 µM | [14] > 100 µM

Cc1c2ncccc2c(C)c2c1[nH]c1ccccc12
inactive: [1] 14.1 µM | [19] 13 µM | [2] 13.1 µM | [3] 9.38 µM | [4] 6.79 µM | [15] 2.02 µM | [16] 12.7 µM | [5] 13 µM | [6] 15.6 µM | [7] 18 µM | [8] 17.7 µM | [9] 16.6 µM | [10] 6.78 µM | [18] 17.6 µM | [11] 14.3 µM | [12] 11.3 µM | [13] 10.3 µM | [14] 11.8 µM

COc1ccc(/C(=C/n2ccnc2)C(O)c2ccc(OC)c(OC)c2)cc1OC (stereo not drawn)
inactive: [1] > 100 µM | [2] > 100 µM | [3] > 100 µM | [4] > 100 µM | [15] > 100 µM | [16] > 100 µM | [5] 33.3 µM | [6] > 100 µM | [7] > 100 µM | [17] 28.8 µM | [8] > 100 µM | [9] > 100 µM | [18] > 100 µM | [11] > 100 µM | [12] > 100 µM | [13] > 100 µM | [14] > 100 µM

CN(C)CC(=O)N1CCc2c([nH]c3ccccc23)C1c1cccnc1 (stereo not drawn)
inactive: [1] > 100 µM | [19] > 100 µM | [3] > 100 µM | [4] > 100 µM | [15] > 100 µM | [6] > 100 µM | [7] > 100 µM | [17] > 100 µM | [8] > 100 µM | [9] > 100 µM | [10] > 100 µM | [18] > 100 µM | [11] > 100 µM | [12] > 100 µM | [13] > 100 µM | [14] > 100 µM

COC1CCCc2c(OC(C)=O)ccc(OC(C)=O)c21 (stereo not drawn)
inactive: [1] > 100 µM | [3] > 100 µM | [4] > 100 µM | [15] > 100 µM | [16] > 100 µM | [5] > 100 µM | [6] > 100 µM | [7] 35 µM | [17] > 100 µM | [8] > 100 µM | [10] > 100 µM | [18] > 100 µM | [11] > 100 µM | [13] > 100 µM | [14] > 100 µM

Reference: ChEMBL document CHEMBL1201862, “PubChem BioAssay data set” (2004)
